# Key:
# [1] = system: recombinant human CFTR carrying the premature stop codon (PTC) mutation G542X; experiment: CFTR-PTC mutant translation readthrough, Nanoluc tagged CFTR luminescence (G542X cell line); format: cell-based; settings: in combination with G418, G542X cell line; for CFTR G542X ACTIVITY Fold 10 μM G-418: fold over 10 μM G-418; for EC50: 16HBE cells
# Experimental: (§1) 16HBE human bronchial epithelial cells (stably over-expressing recombinant human CFTR carrying the premature stop codon (PTC) mutation G542X or R1162X along with a Nanoluc tag incorporated into the CFTR channel within extracellular loop 4 in G542X cell line or C-terminus end in the R1162X cell line were seeded at 0.01×10^6 cells/well and grown in Minimal Essential Medium (MEM) as monolayers in 384 well plates and incubated at 37° C. with 5% CO2. Media was changed every other day until day of experiment. Agents to be evaluated were made up in separate 384 well, polypropylene plates at a 2X the final desired test concentration. Test agent 10-point concentration response curves were constructed using the Labcyte Echo 555 acoustic dispenser. Test agents were typically tested at a max final test concentrations of 50 μM with sequential 2-fold lower concentrations below this in the absence or presence of a fixed 10 μM concentration of the aminoglycoside G418 made up in MEM growth media (reduced Serum Media+HEPES Buffer+2.4 g/L Sodium Bicarbonate+L-Glutamine containing CFTR corrector VX-809 (3 μM)). Treatment with 10 μM G418 alone produced approximately 10% of the response observed with a maximally effective concentration of G418 (typically 125-250 μM). Test agent effects in presence of 10 μM G418 were compared to control wells on the plate containing a maximally effective concentration of G418 (typically 125-250 μM) made up in the same media. 25 ul of test agents/control solutions were transferred from the compound plate to the cell plate, which already contained 25 ul/well of cell plating media, using an Integra Viaflo 384. Cell plates were incubated with the compounds for 48 hours, at which time they were processed using Nanoluc luminescence Kit (Promega Nano-Glo Live Cell Assay System) to measure CFTR-PTC mutant translation readthrough. Luminescence was measured as follows. Cell plates were removed from the incubator and allowed to equilibrate to room temperature for 20 minutes. Media was removed from all wells and the plates were blotted to remove excess remaining volume. Nano-Glo Live Cell Substrate was diluted 1:20 in the appropriate amount of Nano-Glo LCS Dilution Buffer to accommodate the number of cell plates being tested. The substrate/dilution buffer mix was then diluted 1:3 with MEM media to make the appropriate volume for the number of plates being tested. The substrate/dilution buffer/OptiMEM mix was added across the Nanoluc testing cell plates and the plates were read for luminescence signal immediately. Test agent effects on CFTR translation readthrough was determined by normalizing any observed increase in luminescence induced by 48 hours pretreatment with test compound to the magnitude of luminescence increase produced by pretreatment with a maximally effective concentration of the reference readthrough enhancing agent G418 (125-250 μM).
# [2] = system: recombinant human CFTR carrying the premature stop codon (PTC) mutation R1162X; experiment: CFTR-PTC mutant translation readthrough, Nanoluc tagged CFTR luminescence (R1162X cell line); format: cell-based; settings: for CFTR R1162X ACTIVITY Fold 10 μM G-418: fold over 10 μM G-418, in combination with G418; for EC50: in combination with G418, 16HBE cells, read-out: CFTR R1162X ACTIVITY EC50
# Experimental: as §1
SMILES,CFTR G542X ACTIVITY Fold 10 μM G-418 [1],EC50 [1],CFTR R1162X ACTIVITY Fold 10 μM G-418 [2],EC50 [2]
CS(=O)(=O)NCC1CN(c2ncc(OCc3c(Cl)cccc3Cl)cn2)CCO1 (centres unmarked),A′ (A′ = ≥10X),1000 to 10000 nM,B′ (B′ = ≥5X to <10X),1000 to 10000 nM
OCCn1cnc(Nc2ccc(OCc3c(Cl)cccc3Cl)cn2)n1,A′ (A′ = ≥10X),1000 to 10000 nM,A′ (A′ = ≥10X),1000 to 10000 nM
"OCc1cc(-c2ncc(OCc3c(Cl)cccc3Cl)cn2)no1 [[3-[5-[(2,6-dichlorophenyl)methoxy]pyrimidin-2-yl]isoxazol-5-yl]methanol]",A′ (A′ = ≥10X),< 1000 nM,A′ (A′ = ≥10X),1000 to 10000 nM
[2H]C([2H])(O)c1ncn(-c2ccc(OC([2H])([2H])c3c(Cl)cccc3C(F)(F)F)cc2)n1,C′ (C′ = <5X),< 1000 nM,C′ (C′ = <5X),< 1000 nM
"OCC1CN(c2ccc(OCc3c(Cl)cccc3Cl)cc2)CCO1 (centres unmarked) [[4-[4-[(2,6-dichlorophenyl)methoxy]phenyl]morpholin-2-yl]methanol]",A′ (A′ = ≥10X),1000 to 10000 nM,A′ (A′ = ≥10X),1000 to 10000 nM
Cc1cccc(C(F)(F)F)c1COc1cnc(N2CCN3C(=O)COCC3C2)nc1 (centres unmarked),A′ (A′ = ≥10X),< 1000 nM,A′ (A′ = ≥10X),< 1000 nM
Cc1cccc(C(F)(F)F)c1COc1cnc(N2CCS(=O)(=O)C(CO)C2)nc1 (centres unmarked) [2-(hydroxymethyl)-4-(5-{[2-methyl-6-(trifluoromethyl)phenyl]],C′ (C′ = <5X),1000 to 10000 nM,,1000 to 10000 nM
Cc1cccc(C(F)(F)F)c1COc1ccc(-n2cnc(C(N)=O)n2)cc1,B′ (B′ = ≥5X to <10X),< 1000 nM,A′ (A′ = ≥10X),< 1000 nM
O=C1OC(CO)CN1c1ccc(OCc2c(Cl)ccc(F)c2Cl)cc1 (centres unmarked),A′ (A′ = ≥10X),1000 to 10000 nM,B′ (B′ = ≥5X to <10X),1000 to 10000 nM
Cc1cccc(C(F)(F)F)c1COc1ccc(N2CC(CO)OC2=O)cc1 (centres unmarked),A′ (A′ = ≥10X),1000 to 10000 nM,A′ (A′ = ≥10X),1000 to 10000 nM
[2H]C([2H])(O)c1ccn(-c2ncc(OC([2H])([2H])c3c(Cl)cccc3Cl)cn2)n1,,,C′ (C′ = <5X),1000 to 10000 nM
"O=C1N[C@H](CO)CN1c1ncc(OCc2c(C(F)(F)F)cccc2C(F)(F)F)cn1 [(4S)-1-(5-{[2,6-bis(trifluoromethyl)phenyl]methoxy}pyrimidin-2-yl)-4-(hydroxymethyl)imidazolidin-2-one]",,,C′ (C′ = <5X),> 10000 nM
O=C1N[C@H](CO)CN1c1ccc(OCc2c(C(F)(F)F)cccc2C(F)(F)F)cn1,,,C′ (C′ = <5X),< 1000 nM
OCc1ncn(-c2ccc(OCc3c(C(F)(F)F)ccc(F)c3Cl)cn2)n1,,,C′ (C′ = <5X),< 1000 nM
"O=C1CN(c2ccc(OCc3c(Cl)ccc(F)c3Cl)cn2)C(=O)N1 [Compound 341, 1-{5-[(2,6-dichloro-3-fluorophenyl)methoxy]pyridin-2-yl}imidazolidine-2,4-dione]",,,C′ (C′ = <5X),< 1000 nM
O=C1CN(c2cnc(OCc3c(Cl)cccc3C(F)(F)F)cn2)C(=O)N1,,,C′ (C′ = <5X),1000 to 10000 nM
[2H]C([2H])(O)c1ncn(-c2ncc(OC([2H])([2H])c3c(Cl)cccc3C(F)(F)F)cn2)n1,,,C′ (C′ = <5X),1000 to 10000 nM
OCc1cn(-c2ncc(OCc3c(Cl)ccc(F)c3Cl)cn2)cn1,,,C′ (C′ = <5X),< 1000 nM

SMILES,CFTR G542X ACTIVITY Fold 10 μM G-418 [1],EC50 [1],CFTR R1162X ACTIVITY Fold 10 μM G-418 [2],EC50 [2]
OCc1ncn(-c2ncc(OCc3c(C(F)(F)F)ccc(F)c3Cl)cn2)n1,,,A′ (A′ = ≥10X),1000 to 10000 nM
OCc1cn(-c2ncc(OCc3c(Cl)cc(F)cc3Cl)cn2)cn1,,,C′ (C′ = <5X),1000 to 10000 nM
CCc1cccc(C(F)(F)F)c1COc1cnc(N2C[C@@H](CO)NC2=O)nc1,,,C′ (C′ = <5X),1000 to 10000 nM
Cc1cccc(C(F)(F)F)c1COc1cnc(N2CCN(C)[C@@H](CN)C2)nc1,,,C′ (C′ = <5X),> 10000 nM
Cc1cccc(C(F)(F)F)c1COc1cnc(-n2ncc(CO)n2)nc1,,,C′ (C′ = <5X),< 1000 nM
N#CC1(O)CN(c2ncc(OCc3c(Cl)cccc3C(F)(F)F)cn2)C1,,,A′ (A′ = ≥10X),< 1000 nM
"O=C1CN(c2cnc(OCc3c(Cl)cccc3Cl)cn2)C(=O)N1 [Compound 336, 1-{5-[(2,6-dichlorophenyl)methoxy]pyrazin-2-yl}imidazolidine-2,4-dione]",,,C′ (C′ = <5X),1000 to 10000 nM
O=C1N[C@H](CO)CN1c1ccc(OCc2c(Cl)cccc2C(F)(F)F)cn1,,,C′ (C′ = <5X),< 1000 nM
Cc1ccc(F)c(C(F)(F)F)c1COc1ccc(-n2cnc(CO)n2)cc1,,,A′ (A′ = ≥10X),< 1000 nM
OCc1ncn(-c2ncc(OCc3c(Cl)ccc(F)c3C(F)(F)F)cn2)n1,,,A′ (A′ = ≥10X),< 1000 nM
O=C1CN(c2ccc(OCc3c(C(F)(F)F)ccc(F)c3Cl)cn2)C(=O)N1,,,C′ (C′ = <5X),< 1000 nM
NC(=O)c1ccn(-c2ncc(OCc3c(C(F)(F)F)cccc3C(F)(F)F)cn2)n1,,,A′ (A′ = ≥10X),< 1000 nM
O=C1CN(c2ccc(OCc3c(Cl)ccc(F)c3C(F)(F)F)cn2)C(=O)N1,,,A′ (A′ = ≥10X),< 1000 nM
"O=C1CN(c2ccc(OCc3c(Cl)cccc3Cl)cn2)C(=O)N1 [Compound 332, 1-{5-[(2,6-dichlorophenyl)methoxy]pyridin-2-yl}imidazolidine-2,4-dione]",,,C′ (C′ = <5X),< 1000 nM
"O=C1OC(CO)CN1c1ccc(OCc2c(Cl)ccc(F)c2Cl)cn1 (centres unmarked) [3-{5-[(2,6-dichloro-3-fluorophenyl)methoxy]pyridin-2-yl}-5-(hydroxymethyl)-1,3-oxazolidin-2-one]",,,C′ (C′ = <5X),1000 to 10000 nM
"O=C1CN(c2ccc(OCc3c(C(F)(F)F)cccc3C(F)(F)F)cn2)C(=O)N1 [1-(5-{[2,6-bis(trifluoromethyl)phenyl]methoxy}pyridin-2-yl)imidazolidine-2,4-dione]",,,A′ (A′ = ≥10X),< 1000 nM
Cc1c(F)ccc(C(F)(F)F)c1COc1ccc(-n2cnc(CO)n2)cc1,,,C′ (C′ = <5X),< 1000 nM
